Results taken from US20200289481A1, “SUSTAINED-RELEASE PHARMACEUTICAL COMPOSITION” (ISHIHARA SANGYO KAISHA, LTD., priority 2017, published 2020).
Counter-ions that a name gives are not always drawn.

Assays:
[1] = Evaluation test of elution in phosphate-buffered saline (pH 7.4), elution rate of compound 1 by UPLC-MS; assay type: physicochemical; settings: phosphate-buffered saline pH 7.4, 37°C, shaking 60 strokes/min
Description: (§1) Quantitative determination of the concentration of the compound 1 in the following Test Examples and Reference Examples was performed using ultra-high performance liquid chromatography with a single quadrupole mass spectrometer as a detector.
An evaluation test of the elution of the fine particle a prepared in Reference Example 1-1 was performed in the same manner as in Test Example 1 mentioned later. Specifically, the fine particle a (10 mg) was added to phosphate-buffered saline (pH 7.4, 30 mL), and using a shaker, the mixture was horizontally shaken at 37° C. for 24 hours at a shaking speed of 60 strokes/min and with a shaking width of 2.0 cm/stroke to evaluate “elution”. Quantitative determination of the concentration of the compound 1 was performed using ultra-high performance liquid chromatography with a single quadrupole mass spectrometer as a detector to calculate an elution rate. The test results of the fine particle a are shown in Table 1 below together with the test results of the compound 1 bulk powder obtained in Test Example 1 mentioned later.
Using the fine particles A, B, C, D and E prepared in Test Example 1-1 and the compound 1 bulk powder, an evaluation test of each elution was performed. Each of the fine particles A, B, C, D and E and the compound 1 bulk powder (10 mg) was added to phosphate-buffered saline (pH 7.4, 30 mL), and using a shaker, the mixtures were horizontally shaken at 37° C. for 24 hours at a shaking speed of 60 strokes/min and with a shaking width of 2.0 cm/stroke to evaluate “elution”. Quantitative determination of the concentration of the compound 1 was performed using ultra-high performance liquid chromatography with a single quadrupole mass spectrometer as a detector to calculate an elution rate.
Using the fine particle F prepared in Test Example 2-1 and the compound 1 bulk powder, an evaluation test of each elution was performed in the same manner as in Test Example 1. Each of the fine particle F and the compound 1 bulk powder (10 mg) was added to phosphate-buffered saline (pH 7.4, 30 mL), and using a shaker, the mixtures were horizontally shaken at 37° C. for 72 hours at a shaking speed of 60 strokes/min and with a shaking width of 2.0 cm/stroke to evaluate “elution”.

[2] = Pharmacokinetic evaluation: concentration of compound 1 in plasma after single administration to SD male rats; assay type: in vivo; settings: for BA / AUC(0-inf) / Cmax / Tmax / half-life: 5 mg/kg as compound 1, single, SD male rats; for AUC(0-inf) / Cmax / Tmax / half-life: rat, plasma
Description: as §1
To evaluate the sustained-release ability of fine particle B, the concentration of the compound 1 in blood was measured over time after subcutaneous administration of the fine particle B or the compound 1 bulk powder to rats or after oral administration of the compound 1 bulk powder to rats. The fine particle B was suspended in physiological saline and the compound 1 bulk powder was dissolved in physiological saline, and then 5 mg/kg each as an amount of the compound 1 was singly administered to SD male rats. After administration, blood was collected over time from the tail vein, and the blood was transferred into a micro test tube treated with heparin, and immediately cooled in ice. After cooling in ice, the blood was immediately centrifuged at 4° C. and 10,000 g for 10 minutes. The concentration of the compound 1 in plasma thus obtained was quantitatively determined using ultra-high performance liquid chromatography with a single quadrupole mass spectrometer as a detector.
Cmax, Tmax, T1/2, AUC0-∞ and BA represent maximum blood concentration (concentration at the peak of blood concentration curve), time to reach maximum blood concentration (time to reach the peak of blood concentration curve), half-life of the concentration of drug in blood, area under curve from initiation of administration to drug elimination and bioavailability, respectively.
To evaluate the sustained-release ability of fine particle F, the concentration of the compound 1 in blood was measured over time after subcutaneous administration of the fine particle F prepared in Test Example 2-1 or the compound 1 bulk powder to rats. The method was same as in Test Example 1-3. Specifically, the fine particle F was suspended in physiological saline and the compound 1 bulk powder was dissolved in physiological saline, and then 5 mg/kg each as an amount of the compound 1 was singly subcutaneously administered to SD male rats. After subcutaneous administration, blood was collected over time from the tail vein, and the blood was transferred into a micro test tube treated with heparin, and immediately cooled in ice. After cooling in ice, the blood was immediately centrifuged at 4° C. and 10,000 g for 10 minutes. The concentration of the compound 1 in plasma thus obtained was quantitatively determined using ultra-high performance liquid chromatography with a single quadrupole mass spectrometer as a detector.
To evaluate the sustained-release ability of the hydrogel a prepared in Reference Example 3-1, the concentration of the compound 1 in blood was measured over time after subcutaneous administration of the hydrogel a or the compound 1 bulk powder to rats. Specifically, the hydrogel a or the compound 1 bulk powder at a dose of 5 mg/kg as an amount of the compound 1 was singly subcutaneously administered to SD male rats. After subcutaneous administration, blood was collected over time from the tail vein, and the blood was transferred into a micro test tube treated with heparin, and immediately cooled in ice. After cooling in ice, the blood was immediately centrifuged at 4° C. and 10,000 g for 10 minutes. The concentration of the compound 1 in plasma thus obtained was quantitatively determined using ultra-high performance liquid chromatography with a single quadrupole mass spectrometer as a detector. […]

[3] = sc, subcutaneous administration
[4] = subcutaneous administration, 5 mg/kg as compound 1, SD male rats

Structure (SMILES): CCS(=O)(=O)Nc1ncc(C(F)(F)F)cc1NC(=O)C1CCCCC1 [Compound 1 bulk powder, N-(2-ethylsulfonylamino-5-trifluoromethyl-3-pyridyl)cyclohexanecarboxamide-monosodium salt-monohydrate]
- Elution rate ([1]; Time 0 h): 0%
- Elution rate ([1]; Time 0.5 h): 83.73 ± 4.31%
- Elution rate ([1]; Time 1 h): 93.59 ± 1.63%
- Elution rate ([1]; Time 3 h): 94.77 ± 2.26%
- Elution rate ([1]; Time 6 h): 92.00 ± 2.45%
- Elution rate ([1]; Time 12 h): 91.63 ± 1.84%
- Elution rate ([1]; Time 24 h): 97.10 ± 1.96%
- Elution rate ([1]; Time 48 h): 91.10 ± 3.80%
- Elution rate ([1]; Time 72 h): 93.29 ± 1.36%
- BA ([2]; oral administration): 41%
- AUC(0-inf) [2, 3]: 8550 ± 600 ng·h/mL
- Cmax [2, 3]: 9600 ± 700 ng/mL
- Tmax [2, 3]: 15 min
- half-life [2, 3]: 21.6 min
- AUC(0-inf) ([2]; oral administration): 5160 ± 200 ng·h/mL
- Cmax ([2]; oral administration): 3100 ± 500 ng/mL
- Tmax ([2]; oral administration): 15 min
- half-life ([2]; oral administration): 68.4 ± 12 min
- Concentration of compound 1 in plasma at 12 hours after administration [2, 4]: below the detection limit
- Concentration of compound 1 in plasma at 24 hours after administration [2, 4]: below the detection limit
- BA ([2]; subcutaneous administration): 67%
